Source: publication PMC4145321, “Synthesis and Biological Evaluation of Novel 3-Alkylpyridine Marine Alkaloid Analogs with Promising Anticancer Activity” (Marine Drugs, 2014)
Entries after “also recorded” stand apart in the source; their conditions may differ.

Legend:
[1] = test system: RKO-AS-45-1 cells (colon carcinoma); test: MTT cytotoxicity assay, RKO-AS-45-1; type: cell-based, human; details: for IC50: Homo sapiens, RKOAS451, MTT, 48 h incubation, triplicate, average ± SD; for Selectivity Index (SI) RKO AS-45-1: ratio of IC50 WI-26VA4 and IC50 RKO-AS-45-1
Protocol: (§1) The cytotoxicity of the compounds was assessed with the human cell lines, HeLa (cervix adenocarcinoma ATCC# CCl-2), RKO-AS-45-1 (colon carcinoma ATCC# CRL-2579) and WI-26 VA4 (fibroblast ATCC# CCL-95.1) using the MTT (3-(4,5-dimethylthiazol-2-yl)-2,5-diphenyltetrazolium bromide) (Sigma, St. Louis, MO, USA) colorimetric method. Briefly, the cells were plated in 96-well plates (1 × 10^5 cells/well) and incubated for 24 h at 37 °C in a humidified atmosphere with 5% CO2. After 24 h, the wells were washed with culture medium (RPMI +10% inactivated fetal calf serum + 2 mM L-glutamine) and incubated with the compounds at various concentrations (0.05 to 500 μM). After 48 h of incubation, the plates were treated with MTT. The colorimetric measurement was performed at 550 nm using the microplate reader, Spectramax M5e (Molecular Devices, Sunnyvale, CA, USA). Cytotoxicity was scored as the percent reduction in absorbance versus untreated control cultures. All experiments were performed in triplicate. The results are expressed as the mean of the IC50 (the lethal drug concentration that reduced cell viability by 50%). The IC50 values were calculated using OriginPro 8.0 (OriginLab Corporation, Northampton, MA, USA) software. A selectivity index (SI), corresponding to the ratio between the cytotoxic activities of each compound against the HeLa and RKO-AS-45-1 cell lines and the cytotoxicity against WI-26 VA4, was calculated as follows: […]

[2] = test system: HeLa cells (cervix adenocarcinoma); test: MTT cytotoxicity assay, HeLa; type: cell-based, human; details: for IC50: Homo sapiens, HeLa, MTT, 48 h incubation, triplicate, average ± SD; for Selectivity Index (SI) HeLa: ratio of IC50 WI-26VA4 and IC50 HeLa
Protocol: as §1

RKO-AS-45-1 cells [3] = test: Cytokinesis-block micronucleus assay; type: cell-based, human; details: 3 h treatment
Protocol: To assess the potential of the synthetic alkaloids to induce DNA damage (chromosomal mutations) in vitro, the cytokinesis-block micronucleus assay was performed in the RKO-AS-45-1 cell line. The procedures were developed as described by Fenech, with adaptations. Briefly, the cells were seeded in 24-well plates (2.5 × 10^5 cells/well) and maintained at 37 °C in a humid atmosphere with 5% CO2. After 24 h, the cells were washed twice with PBS, and the treatments were performed in culture media without serum for three hours. Each treatment was performed in triplicate. The negative control group was treated with PBS, and a positive control group was established with the treatment of the cells with methyl methanesulfonate (MMS—400 μM).
After completing treatments with three concentrations lower than the IC50 of Compounds 4c (4.8, 9.6 and 14.3 μM) and 5c (5.9, 11.8, and 17.8 μM) diluted in culture media, the cells were washed twice with PBS, trypsinized and centrifuged for 5 min at 1200 rpm. The pellet was then resuspended in chilled hypotonic solution (1% sodium citrate) together with one drop of 1% formaldehyde and carefully homogenized with a Pasteur pipette. This cell suspension was centrifuged for 5 min at 1200 rpm and resuspended in 5 mL of fixative, methanol/acetic acid (3:1 v/v). Next, the tubes were centrifuged for 5 min, and the supernatant was discarded; the cell suspension was spread onto slides previously cleaned and covered with a film of chilled distilled water.
At the moment of cytogenetic analysis, the slides were stained with DAPI (4′,6-diamidino-2-phenylindole) diluted in phosphate buffer (0.06 M Na2HPO4 and 0.06 M KH2PO4, pH 6.8) for 2 min, washed with distilled water and analyzed under a fluorescent microscope (Zeiss, Axioscope) with an excitation filter of 365 nm and a barrier filter of 445/450 nm. Two thousands cells with a well-preserved cytoplasm were analyzed for each treatment in a blind test. Cells containing 1–3 micronuclei were scored. The criterion for the identification of MNs was according to a previous report. […]

RKO-AS-45-1 cells [4] = test: Frequency of binucleation (mitotic index); type: cell-based, human; details: 300 cells counted
Protocol: The influence of the synthetic alkaloids on cell division was assessed by calculating the frequency of binucleation in RKO-AS-45-1 cells. The same slides prepared for the micronucleus assay were used, and 300 cells with a well-preserved cytoplasm were counted using fluorescence microscopy, as described above. The frequency of binucleated cells was calculated as the proportion (percentage) of cells undergoing complete cell division after exposure to digoxin and controls.

RKO-AS-45-1 cells [5] = test: TUNEL apoptosis assay, RKO-AS-45-1; type: cell-based, human; details: 48 h; 4c at 5.1 μM, 5c at 19.1 μM
Protocol: (§2) Apoptotic cell death was measured using the APO-BrdU TUNEL assay kit (Invitrogen, Carlsbad, CA, USA). Briefly, the effect of Compounds 4c and 5c and etoposide on DNA fragmentation was determined using Hela and RKO-AS-45-1 cells. The cells were incubated with the compounds for 48 h, as described above, and fixed using a solution of ice-cold 70% ethanol. The cells were then counterstained with 5-bromo-2′-deoxyuridine 5′-triphosphate (BrdUTP) in the presence of terminal deoxynucleotidyl transferase (TdT) and stained with an anti-BrdU monoclonal antibody-PRB-1 Alexa Fluor 488 conjugate, as previously described. The loaded cells were visualized by fluorescence microscopy using a Zeiss Axiovert 200 (Carl Zeiss, Oberkochen, Germany).

HeLa cells = test: TUNEL apoptosis assay, HeLa; type: cell-based, human; details: 48 h; 4c at 19.1 μM, 5c at 8.5 μM
Protocol: as §2

[6] = test system: WI-26VA4 cells (lung fibroblast, non-cancerous); test: MTT cytotoxicity assay, WI-26VA4; type: cell-based; details: Homo sapiens, WI26VA4, 48 h incubation, triplicate, average ± SD
Protocol: The cytotoxicity of the compounds was assessed with the human cell lines, HeLa (cervix adenocarcinoma ATCC# CCl-2), RKO-AS-45-1 (colon carcinoma ATCC# CRL-2579) and WI-26 VA4 (fibroblast ATCC# CCL-95.1) using the MTT (3-(4,5-dimethylthiazol-2-yl)-2,5-diphenyltetrazolium bromide) (Sigma, St. Louis, MO, USA) colorimetric method. Briefly, the cells were plated in 96-well plates (1 × 10^5 cells/well) and incubated for 24 h at 37 °C in a humidified atmosphere with 5% CO2. After 24 h, the wells were washed with culture medium (RPMI +10% inactivated fetal calf serum + 2 mM L-glutamine) and incubated with the compounds at various concentrations (0.05 to 500 μM). After 48 h of incubation, the plates were treated with MTT. The colorimetric measurement was performed at 550 nm using the microplate reader, Spectramax M5e (Molecular Devices, Sunnyvale, CA, USA). Cytotoxicity was scored as the percent reduction in absorbance versus untreated control cultures. All experiments were performed in triplicate. […] The IC50 values were calculated using OriginPro 8.0 (OriginLab Corporation, Northampton, MA, USA) software. A selectivity index (SI), corresponding to the ratio between the cytotoxic activities of each compound against the HeLa and RKO-AS-45-1 cell lines and the cytotoxicity against WI-26 VA4, was calculated as follows: SI = […].

[7] = test system: actin cytoskeleton of RKO-AS-45-1 cells; test: Actin polymerization by fluorescence microscopy; type: cell-based, human; details: 19.1 μM, 24 h, phalloidin Alexa Fluor 488
Protocol: The control with non-treated cells was included in parallel. After 24 h, the cells were rinsed in phosphate-buffered saline (PBS) for 3 min, fixed in paraformaldehyde (#15,812-7, Sigma) at 4% in PBS for 1 h and permeabilized with 0.1% Triton X-100 (#17-1315-01, Plusone, GE Healthcare, Fairfield, CA, USA) in PBS for 10 min. The RKO-AS-45-1 cells were labeled with Phalloidin Alexa Fluor® 488 (#A12379, Molecular Probes, Eugene, OR, USA), and the nuclei were counterstained with 4,6-diaminidino-2-phenylindole (DAPI; Molecular Probes, #D1306) according to the manufacturer’s instructions. Image acquisition was performed using an AxioVert 200 microscope (Carl Zeiss, Oberkochen, Germany).

SMILES | IC50 [1] | IC50 [2] | Selectivity Index (SI) RKO AS-45-1 [1] | Selectivity Index (SI) HeLa [2] | other results
c1cncc(CCCOCCCCCCOC2CCCCO2)c1 (stereo not shown) [Compound 4a, 1-[3-(pyridin-3-yl)propoxy]-6-(oxan-2-yloxy)hexane] | > 300 µM | > 300 µM | – | – | –
c1cncc(CCCOCCCCCCCCOC2CCCCO2)c1 (stereo not shown) [Compound 4b, 1-[3-(pyridin-3-yl)propoxy]-8-(oxan-2-yloxy)octane] | 23.7 ± 1.7 µM | 8.1 ± 2.7 µM | 1.59 | 4.66 | –
c1cncc(CCCOCCCCCCCCCCOC2CCCCO2)c1 (stereo not shown) [Compound 4c, 1-[3-(pyridin-3-yl)propoxy]-10-(oxan-2-yloxy)decane] | 5.1 ± 1.1 µM | 4 ± 0.8 µM | 1.25 | 1.60 | Micronucleus frequency vs control (RKO-AS-45-1 cells [3]; 2.5 and 4.0 μM (two highest concentrations), 2000 binucleated cells, p < 0.05): significantly higher than that detected in the control; also recorded: statistically higher than that identified in the control group; Micronucleus frequency vs control (RKO-AS-45-1 cells [3]; lower concentrations evaluated): did not induce significant alterations in the MN frequency; Frequency of binucleation vs negative control (RKO-AS-45-1 cells [4]; two highest concentrations assessed): reduced the binucleation frequency; Apoptosis induction (TUNEL) (RKO-AS-45-1 cells [5]): promoted apoptosis; Apoptosis induction (TUNEL) (HeLa cells): promoted apoptosis
c1cncc(CCCOCCCCCCCCCCCCOC2CCCCO2)c1 (stereo not shown) [Compound 4d, 1-[3-(pyridin-3-yl)propoxy]-12-(oxan-2-yloxy)dodecane] | 3.2 ± 1.7 µM | 9.4 ± 0.7 µM | 3.53 | 1.20 | –
OCCCCCCOCCCc1cccnc1 [Compound 5a, 6-[3-(pyridin-3-yl)propoxy]hexan-1-ol] | > 400 µM | > 400 µM | – | – | –
OCCCCCCCCOCCCc1cccnc1 [Compound 5b, 8-[3-(pyridin-3-yl)propoxy]octan-1-ol] | > 300 µM | 192 ± 10.1 µM | – | 0.87 | IC50 [6]: 167 ± 10.5 µM
OCCCCCCCCCCOCCCc1cccnc1 [Compound 5c, 10-[3-(pyridin-3-yl)propoxy]decan-1-ol] | 19.1 ± 4.4 µM | 8.5 ± 2.4 µM | 5.18 | 11.65 | Micronucleus frequency vs control (RKO-AS-45-1 cells [3]; 17.8 μM (highest concentration), 2000 binucleated cells, p < 0.05): significantly higher than that found in the control; also recorded: statistically higher than that identified in the control group; Frequency of binucleation / proliferation rate vs control (RKO-AS-45-1 cells [4]; highest concentration assessed, p < 0.05): reduced the proliferation rate; also recorded: induced a reduction in the proliferation rate; Apoptosis induction (TUNEL) (RKO-AS-45-1 cells [5]): promoted apoptosis; Apoptosis induction (TUNEL) (HeLa cells): promoted apoptosis; Effect on actin cytoskeleton / actin polymerization [7]: actin polymerization is altered; also recorded: accentuated alteration of the cellular actin network
OCCCCCCCCCCCCOCCCc1cccnc1 [Compound 5d, 12-[3-(pyridin-3-yl)propoxy]dodecan-1-ol] | 132 ± 16.8 µM | 8.8 ± 1.9 µM | 0.25 | 3.87 | –
COc1cc([C@@H]2c3cc4c(cc3[C@@H](O[C@@H]3O[C@@H]5CO[C@@H](C)O[C@H]5[C@H](O)[C@H]3O)[C@H]3COC(=O)[C@H]23)OCO4)cc(OC)c1O [Etoposide, reference compound] | 1.4 ± 0.6 µM | 2.7 ± 0.4 µM | – | – | –
